The target in this test is T1, RORc ligand binding domain (Homo sapiens, UniProt P51449).
T1 sequence (P51449 269-508 limits assumed): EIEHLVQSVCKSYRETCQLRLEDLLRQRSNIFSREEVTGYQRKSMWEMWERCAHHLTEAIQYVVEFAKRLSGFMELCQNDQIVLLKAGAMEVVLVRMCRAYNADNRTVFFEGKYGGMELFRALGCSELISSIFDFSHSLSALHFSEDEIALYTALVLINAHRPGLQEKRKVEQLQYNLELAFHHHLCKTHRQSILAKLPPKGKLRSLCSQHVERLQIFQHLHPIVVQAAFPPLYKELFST
As to the kind of experiment: In vitro RORc ligand binding assay (25-[3H]hydroxycholesterol displacement).
For `C[C@H]1CC[C@H](c2ccccc2)S(=O)(=O)N1Cc1cc(F)c(C2(C(=O)N3CCOCC3)CCOCC2)cc1F` [Example 37, [4-[2,5-difluoro-4-[[(3S,6R)-3-methyl-1,1-dioxo-6-phenyl-thiazinan-2-yl]methyl]phenyl]tetrahydropyran-4-yl]-morpholino-methanone], the IC50 came out at 106 nM.
With `Cc1ccn(C(=O)C2(c3cc(F)c(CN4[C@@H](C)CC[C@H](c5ccccc5)S4(=O)=O)cc3F)CCOCC2)n1` [Example 38, [4-[2,5-difluoro-4-[[(3S,6R)-3-methyl-1,1-dioxo-6-phenyl-thiazinan-2-yl]methyl]phenyl]tetrahydropyran-4-yl]-(3-methylpyrazol-1-yl)methanone] the figure was 35 nM; with `C[C@H]1CC[C@H](c2ccccc2)S(=O)(=O)N1Cc1cc(F)c(C2(C(=O)n3cccn3)CCOCC2)cc1F` [Example 39, [4-[2,5-difluoro-4-[[(3S,6R)-3-methyl-1,1-dioxo-6-phenyl-thiazinan-2-yl]methyl]phenyl]tetrahydropyran-4-yl]-pyrazol-1-yl-methanone], 27.3 nM.
`C[C@H]1CC[C@H](c2ccccc2)S(=O)(=O)N1Cc1ccc(C2(Cn3cnnc3)CCOCC2)cc1F` [Example 40, (3S,6R)-2-[[2-fluoro-4-[4-(1,2,4-triazol-4-ylmethyl)tetrahydropyran-4-yl]phenyl]methyl]-3-methyl-6-phenyl-thiazinane 1,1-dioxide] came in with an IC50 of 118 nM.
With `Cc1nnc(NCC2(c3ccc(CN4[C@@H](C)CC[C@H](c5ccccc5)S4(=O)=O)c(F)c3)CCOCC2)o1` [Example 41, N-[[4-[3-fluoro-4-[[(3S,6R)-3-methyl-1,1-dioxo-6-phenyl-thiazinan-2-yl]methyl]phenyl]tetrahydropyran-4-yl]methyl]-5-methyl-1,3,4-oxadiazol-2-amine] the figure was 41.8 nM; with `C[C@H]1CC[C@H](c2ccccc2)S(=O)(=O)N1Cc1ccc(C2(c3nnco3)CCOCC2)cc1F` [Example 42, (3S,6R)-2-[[2-fluoro-4-[4-(1,3,4-oxadiazol-2-yl)tetrahydropyran-4-yl]phenyl]methyl]-3-methyl-6-phenyl-thiazinane 1,1-dioxide], 54.6 nM; with `Cc1nnc(C2(c3ccc(CN4[C@@H](C)CC[C@H](c5ccccc5)S4(=O)=O)c(F)c3)CCOCC2)o1` [Example 43, (3S,6R)-2-[[2-fluoro-4-[4-(5-methyl-1,3,4-oxadiazol-2-yl)tetrahydropyran-4-yl]phenyl]methyl]-3-methyl-6-phenyl-thiazinane 1,1-dioxide], 142 nM.
With `C[C@H]1CC[C@H](c2ccccc2)S(=O)(=O)N1Cc1ccc(C2(c3nnc(CO)o3)CCOCC2)cc1F` [Example 44, [5-[4-[3-fluoro-4-[[(3S,6R)-3-methyl-1,1-dioxo-6-phenyl-thiazinan-2-yl]methyl]phenyl]tetrahydropyran-4-yl]-1,3,4-oxadiazol-2-yl]methanol] the figure was 102 nM; with `C[C@H]1CC[C@H](c2ccccc2)S(=O)(=O)N1Cc1ccc(C2(n3cnnc3)CCOCC2)cc1F` [Example 45, (3S,6R)-2-[[2-fluoro-4-[4-(1,2,4-triazol-4-yl)tetrahydropyran-4-yl]phenyl]methyl]-3-methyl-6-phenyl-thiazinane 1,1-dioxide], 87.7 nM; with `C[C@H]1CC[C@H](c2ccccc2)S(=O)(=O)N1Cc1ccc(C2(c3nnc[nH]3)CCOCC2)cc1F` [Example 46, (3S,6R)-2-[[2-fluoro-4-[4-(4H-1,2,4-triazol-3-yl)tetrahydropyran-4-yl]phenyl]methyl]-3-methyl-6-phenyl-thiazinane 1,1-dioxide], 26.6 nM.
With `Cc1nnc(C2(c3ccc(CN4[C@@H](C)CC[C@H](c5ccccc5)S4(=O)=O)c(F)c3)CCOCC2)[nH]1` [Example 47, (3S,6R)-2-[[2-fluoro-4-[4-(5-methyl-4H-1,2,4-triazol-3-yl)tetrahydropyran-4-yl]phenyl]methyl]-3-methyl-6-phenyl-thiazinane 1,1-dioxide] the figure was 114 nM.
